Target: T1, wild-type K-Ras protein (Mus musculus, UniProt P32883)
T1 construct: intraperitoneally administered to C57BL/6J wild-type mice; from tissue; host or cells: C57BL/6J wild-type mice: spleen, pancreas, liver, kidneys, colon, lungs, heart
Test: Degradation of wild-type K-Ras protein in each tissue of mouse after administration, Western blot analysis
Assay type: in vivo
Experimental: TUS-007 was dissolved in DMSO, and then dissolved in corn oil so that the concentration of DMSO was 10 vol %, and then intraperitoneally administered to C57BL/6J wild-type mice (8 to 9 weeks old, male) (CLEA Japan, Inc.) in an amount of 40 mg/kg body weight or 80 mg/kg body weight (n=3 to 4). Furthermore, in addition to a group in which TUS-007 was administered, a group in which Ras-SOS had been administered in a dose of 80 mg/kg body weight was prepared. As a control, an injection carrier (corn oil containing 10 vol % DMSO) was used. The mice were kept under an environment of ad libitum access to food and water. The mice were dissected under deep anesthesia by Somnopentyl (Kyoritsu Seiyaku Corporation) 48 hours after administration. Abdominal section was performed, and then the spleen, pancreas, liver, kidneys, colon, lungs, and heart were sequentially extracted and flash frozen in liquid nitrogen. Each tissue frozen in liquid nitrogen was stored in a deep freezer at −80° C.
The frozen tissues (spleen: 0.02 g, other tissues: 0.04 g) were each triturated, and then 500 μL of TKM tissue lysis buffer (50 mM triethanolamine (pH 7.8), 50 mM KCl, 5 mM MgCl2, 0.25 M sucrose, 1 mM PMSF, Protein Inhibitors Cocktail-EDTA free (Nacalai Tesque, Inc.), 1 mM DTT, and a recombinant RNase inhibitor (0.2 U/μL, Takara Bio) were added, and dissolved by rotation for 15 minutes (1 rpm, 25° C.). Then, the resultant product was subjected to centrifugation (at 13800 rpm×30 minutes, 4° C.), and the supernatants (each tissue extract) were collected. The concentration of the extracted proteins was quantified by a spectrophotometer.
Each tissue extract collected was subjected to Western blot analysis. An SDS-PAGE gel was prepared using TGX™ FastCast™ Acrylamide Kit, 12% (Bio-Rad). Electrophoresis samples were prepared in a 6×SDS-PAGE sample buffer (62.5 mM Tris-HCl pH 6.8, 2% SDS, 5% 2-mercaptoethanol, 10% glycerol, 0.25% BPB), and placed on a heat block at 95° C. for 5 minutes. Electrophoresis was performed at 160 V for 60 minutes (electrophoresis buffer; 195 mM glycine, 25 mM Tris).
After electrophoresis, proteins were transferred to a PVDF membrane (Immobion™-P, Millipore) under conditions of 100 V and 1.5 hours using a tank-type blotting device and a transfer buffer (25 mM Tris-HCl, 195 mM glycine, 0.01% SDS, 15% methanol). The membrane was split into two at the position of a 25 kDa marker. The membrane after transfer was shaken and blocked in 5% skim milk/TBS-T (100 mM Tris-HCl, 150 mM NaCl, 0.1% Tween-20, pH 7.6) at room temperature for 30 minutes. After blocking, a primary antibody reaction was performed in 5% skim milk/TBS-T. As the primary antibody, an anti-K-Ras antibody (sc-30, SantaCruz, diluted 500 times) and an anti-GAPDH antibody (sc-32233, SantaCruz, diluted 20000 times) were used. The membrane was shaken at room temperature for 60 minutes (anti-K-Ras antibody) or at 4° C. overnight (anti-GAPDH antibody), and then the membrane was washed with TBS-T for 5 minutes. It is noted that washing was performed four times. After the primary antibody reaction, a secondary antibody reaction was performed in 1% skim milk/TBS-T. The membrane was shaken at room temperature for 30 minutes, and then the membrane was washed with TBS-T for 5 minutes. It is noted that washing was performed four times. Furthermore, the membrane was washed with TBS (100 mM Tris-HCl, 150 mM NaCl, pH 7.6) for 10 minutes. Subsequently, the membrane was treated with a chemiluminescence reagent Immobilon™ Western (Millipore), and then chemiluminescence was detected using a lumino image analyzer LAS-3000 (FUJIFILM Corporation). Detected bands were quantified with an image processing software ImageJ (NIH).

T1 sequence (P32883 whole entry): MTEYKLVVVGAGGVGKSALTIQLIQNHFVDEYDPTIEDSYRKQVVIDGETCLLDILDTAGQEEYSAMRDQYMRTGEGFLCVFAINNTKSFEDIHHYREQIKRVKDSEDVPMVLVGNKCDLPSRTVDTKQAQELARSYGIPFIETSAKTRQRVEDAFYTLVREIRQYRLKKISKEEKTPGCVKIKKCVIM

CC[C@@H](C)[C@H](NC(=O)CCCCCCNC(=O)[C@H](CC(C)C)NC(=O)CNC(=O)c1cc(Cl)ccc1Cl)C(=O)Nc1ccc2[nH]c(Cc3c[nH]c4ccccc34)nc2c1 [TUS-007]
amount of wild-type K-Ras protein in colon (intraperitoneal 40 or 80 mg/kg body weight, 48 hours after administration, colon): reduced in a concentration dependent manner
amount of wild-type K-Ras protein in heart (intraperitoneal 40 or 80 mg/kg body weight, 48 hours after administration, heart): not reduced
amount of wild-type K-Ras protein in kidneys (intraperitoneal 40 or 80 mg/kg body weight, 48 hours after administration, kidneys): reduced in a concentration dependent manner
amount of wild-type K-Ras protein in liver (intraperitoneal 40 or 80 mg/kg body weight, 48 hours after administration, liver): not reduced
amount of wild-type K-Ras protein in lungs (intraperitoneal 40 or 80 mg/kg body weight, 48 hours after administration, lungs): not reduced
amount of wild-type K-Ras protein in pancreas (intraperitoneal 40 or 80 mg/kg body weight, 48 hours after administration, pancreas): reduced in a concentration dependent manner
amount of wild-type K-Ras protein in spleen (intraperitoneal 40 or 80 mg/kg body weight, 48 hours after administration, spleen): reduced in a concentration dependent manner
transfer property to tissues (molecular kinetics) (suggested from K-Ras degradation in tissues): showed a higher transfer property in the pancreas, colon, kidneys, and spleen as compared with the lungs, liver, and heart
